Measurements as given in PubChem BioAssay AID1963832 (Molecular Pharmacology Branch, DTP, NCI, 2024).

System: 885724-159-R-J1-PDC complex spheroid viability
Assay: Anticancer human tumor 885724-159-R-J1-PDC patient-derived pancreatic adenocarcinoma cell line growth inhibition [POLQ]
Conditions: for IC50: curve of first compound; for viability, T/C: stronger effect = lower value; active = viability on the fitted dose curve at most 10% of control; inactive = the rest
Experimental: Multicellular complex tumor spheroid response to Polymerase (POL) inhibitors (novobiocin, ART-558, RP6685) in combination with a variety of drugs and investigational agents in selected tumor cell lines
The POL inhibitors (novobiocin, ART-558, and RP6685) were evaluated both individually and in combination with standard of care and investigational anticancer small molecules within a complex spheroid model of solid tumors. . Complex spheroids include a stromal component modeled by human endothelial cells (HUVEC) and fibroblasts modeled by human mesenchymal stem cells (MSCs). The concentration ranges selected for each drug and investigational agent were based upon clinically achievable concentrations if the clinical Cmax of the agent was known.
Compounds. The drugs and investigational agents: novobiocin (NSC847541), ART-558 (NSC835418), RP-6685 (NSC848927), peposertib (NSC802822), ceralasertib (NSC780249), elimusertib (NSC800525), camonsertib (NSC841442), AZD-1390 (NSC803789), olaparib (NSC753686), talazoparib (NSC767125), rucaparib (NSC756644), sotorasib (NSC818433), MRTX-1133 (NSC836407), SN-38 (NSC673596), topotecan (NSC609699), epotoside (NSC141540), doxorubicin (NSC123127), gemcitabine (NSC613327), 5-fluorouracil (NSC19893), paclitaxel (NSC125973), vemurafenib (NSC761431), MSA-2 (NSC828583), SN-011 (NSC837082), adavosertib (NSC754352), prexasertib (NSC758257), carboplatin (NSC241240) and oxaliplatin (NSC266046), were obtained from the National Cancer Institute (NCI) Developmental Therapeutics Program Chemical Repository (21). The FDA-approved anticancer drug set is available from the Developmental Therapeutics Program at https://dtp.cancer.gov/organization/dscb/obtaining/. […] The stock solutions were prepared in dimethyl sulfoxide (DMSO, Sigma-Aldrich, St. Louis, MO, cat. D2650), except for the platinum compounds which were prepared in saline (Quality Biological, Gaithersburg, MD, cat. 114-055-101), at 800-fold the tested concentration and stored at -70 degrees C prior to their use. All drugs and investigational agents were tested over a range starting from a high concentration at or near the clinical Cmax and decreasing in half-log increments. If the clinical Cmax for an agent had not been determined, the highest concentration tested was 10 microM, except for SN-38, which was tested at a high concentration of 1 microM.
Cell Culture. All cells were maintained in an incubator at 37 degrees C and 5% CO2 with 95% humidity. The PDC lines were cultured according to standard operating procedures established by the NCI PDMR (https://pdmr.cancer.gov). Table 3 of the manuscript, lists the cell lines along with the number of the three cell types plated to form the mct-spheroids and media for tumor cell growth. After thawing, all PDC lines, except 997537-175-T-J1-PDC and 415267-285-R-J2-PDC, were cultured in Matrigel-coated flasks prepared with a working solution of 1X Ham's F-12 nutrient mix, without supplementation (Thermo Fisher Scientific, cat. 11765054), 100 U/mL penicillin-streptomycin (Thermo Fisher Scientific, cat. 15140122), and 2.5% Matrigel (Corning Inc., Corning, NY, cat. 354248) for the first three passages. The two PDC lines 997537-175-T-J1-PDC and 415267-285-R-J2-PDC were cultured on uncoated flasks. The 857933-349-R-J2-PDC line was cultured in 6C/Colon 1B media containing advanced DMEM/F-12 (Thermo Fisher Scientific, cat. 12634028), 10 mM HEPES (Thermo Fisher Scientific, cat. 15630080), 1X GlutaMAX supplement (Thermo Fisher Scientific, cat. 35050061), 0.1 mg/mL primocin (InvivoGen, San Diego, CA, cat. ant-pm-2), 10% defined fetal bovine serum, heat inactivated (HyClone Laboratories Inc., Logan, UT, cat. SH30070.03HI), 50% L-WRN conditioned media (ATCC, cat. CRL-3276), 1.25 mM N-Acetyl-L-cysteine (Sigma-Aldrich, cat. A9165), 10 mM nicotinamide (Sigma-Aldrich, cat. N0636), 1X B-27 supplement (Thermo Fisher Scientific, cat. 17504044), 1X N-2 supplement (Thermo Fisher Scientific, cat. […]

[1] = second compound 0.0316 µM, first compound 0.0316 µM
[2] = second compound 0.0316 µM, first compound 0.1 µM
[3] = second compound 0.0316 µM, first compound 0.316 µM
[4] = second compound 0.0316 µM, first compound 1 µM
[5] = second compound 0.0316 µM, first compound 3.16 µM
[6] = second compound 0.0316 µM, first compound 10 µM
[7] = second compound 0.1 µM, first compound 0.0316 µM
[8] = second compound 0.1 µM, first compound 0.1 µM
[9] = second compound 0.1 µM, first compound 0.316 µM
[10] = second compound 0.1 µM, first compound 1 µM
[11] = second compound 0.1 µM, first compound 3.16 µM
[12] = second compound 0.1 µM, first compound 10 µM
[13] = second compound 0.316 µM, first compound 0.0316 µM
[14] = second compound 0.316 µM, first compound 0.1 µM
[15] = second compound 0.316 µM, first compound 0.316 µM
[16] = second compound 0.316 µM, first compound 1 µM
[17] = second compound 0.316 µM, first compound 3.16 µM
[18] = second compound 0.316 µM, first compound 10 µM
[19] = second compound 1 µM, first compound 0.0316 µM
[20] = second compound 1 µM, first compound 0.1 µM
[21] = second compound 1 µM, first compound 0.316 µM
[22] = second compound 1 µM, first compound 1 µM
[23] = second compound 1 µM, first compound 3.16 µM
[24] = second compound 1 µM, first compound 10 µM
[25] = second compound 3.16 µM, first compound 0.0316 µM
[26] = second compound 3.16 µM, first compound 0.1 µM
[27] = second compound 3.16 µM, first compound 0.316 µM
[28] = second compound 3.16 µM, first compound 1 µM
[29] = second compound 3.16 µM, first compound 3.16 µM
[30] = second compound 3.16 µM, first compound 10 µM
[31] = second compound 10 µM, first compound 0.0316 µM
[32] = second compound 10 µM, first compound 0.1 µM
[33] = second compound 10 µM, first compound 0.316 µM
[34] = second compound 10 µM, first compound 1 µM
[35] = second compound 10 µM, first compound 3.16 µM
[36] = second compound 10 µM, first compound 10 µM
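Note: spheroids exposed to compounds for 7 days.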

CC1COCCN1c1cc(C2(S(C)(=N)=O)CC2)nc(-c2ccnc3[nH]ccc23)n1 (centres undefined) + COC1C(OC(N)=O)C(O)C(Oc2ccc3c(O)c(NC(=O)c4ccc(O)c(CC=C(C)C)c4)c(=O)oc3c2C)OC1(C)C
5.74 µM: IC50 (second compound 10 µM)
7.53 µM: IC50 (second compound 0.1 µM)
5.46 µM: IC50 (second compound 3.16 µM)
6.58 µM: IC50 (second compound 0.0316 µM)
4.74 µM: IC50 (second compound 0.316 µM)
3.83 µM: IC50 (second compound 1 µM)
inactive: viability, T/C [1] 95.9% | viability, T/C [2] 96.8% | viability, T/C [3] 93% | viability, T/C [4] 67.8% | viability, T/C [5] 60.3% | viability, T/C [6] 44.6% | viability, T/C [7] 102% | viability, T/C [8] 89.7% | viability, T/C [9] 95.4% | viability, T/C [10] 73.6% | viability, T/C [11] 59.1% | viability, T/C [12] 47% | viability, T/C [13] 87.5% | viability, T/C [14] 98% | viability, T/C [15] 95.9% | viability, T/C [16] 68.7% | viability, T/C [17] 56.5% | viability, T/C [18] 43.9% | viability, T/C [19] 101% | viability, T/C [20] 102% | viability, T/C [21] 89% | viability, T/C [22] 72% | viability, T/C [23] 49.1% | viability, T/C [24] 45.5% | viability, T/C [25] 102% | viability, T/C [26] 85.6% | viability, T/C [27] 91.3% | viability, T/C [28] 72.6% | viability, T/C [29] 54.8% | viability, T/C [30] 43.9% | viability, T/C [31] 111% | viability, T/C [32] 92.2% | viability, T/C [33] 94.1% | viability, T/C [34] 72.7% | viability, T/C [35] 51.7% | viability, T/C [36] 47%

CCCS(=O)(=O)Nc1ccc(F)c(C(=O)c2c[nH]c3ncc(-c4ccc(Cl)cc4)cc23)c1F + COC1C(OC(N)=O)C(O)C(Oc2ccc3c(O)c(NC(=O)c4ccc(O)c(CC=C(C)C)c4)c(=O)oc3c2C)OC1(C)C
> 10 µM: IC50 (second compound 0.0316 µM) | IC50 (second compound 0.1 µM) | IC50 (second compound 0.316 µM) | IC50 (second compound 1 µM) | IC50 (second compound 3.16 µM) | IC50 (second compound 10 µM)
inactive: viability, T/C [1] 106% | viability, T/C [2] 114% | viability, T/C [3] 140% | viability, T/C [4] 148% | viability, T/C [5] 137% | viability, T/C [6] 65.9% | viability, T/C [7] 109% | viability, T/C [8] 114% | viability, T/C [9] 130% | viability, T/C [10] 157% | viability, T/C [11] 143% | viability, T/C [12] 67.8% | viability, T/C [13] 104% | viability, T/C [14] 121% | viability, T/C [15] 131% | viability, T/C [16] 163% | viability, T/C [17] 137% | viability, T/C [18] 76.6% | viability, T/C [19] 108% | viability, T/C [20] 107% | viability, T/C [21] 123% | viability, T/C [22] 145% | viability, T/C [23] 139% | viability, T/C [24] 68.1% | viability, T/C [25] 110% | viability, T/C [26] 103% | viability, T/C [27] 122% | viability, T/C [28] 154% | viability, T/C [29] 151% | viability, T/C [30] 82.4% | viability, T/C [31] 111% | viability, T/C [32] 114% | viability, T/C [33] 128% | viability, T/C [34] 139% | viability, T/C [35] 152% | viability, T/C [36] 76.3%
